Laboratory results reported in PubChem BioAssay (NCI).
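Test compounds were applied to cells in 96-well plates for 48 hours at 5 doses. GI50 marks 50% less growth. Definition used: TGI = concentration required for complete inhibition of growth.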

Assays:
Assay in all cases: NCI anticancer screen, dose series, 48 h
UACC-62 melanoma = system: UACC-62 melanoma
K-562 leukemia = system: K-562 leukemia
MCF7 breast = system: MCF7 breast
786-0 renal = system: 786-0 renal
BT-549 breast = system: BT-549 breast
HS 578T breast = system: HS 578T breast
TK-10 renal = system: TK-10 renal
HCT-116 colon = system: HCT-116 colon
SK-MEL-5 melanoma = system: SK-MEL-5 melanoma
UACC-257 melanoma = system: UACC-257 melanoma
UO-31 renal = system: UO-31 renal
SW-620 colon = system: SW-620 colon
MDA-MB-435 = system: MDA-MB-435
SK-MEL-28 melanoma = system: SK-MEL-28 melanoma
SN12C renal = system: SN12C renal
RPMI-8226 leukemia = system: RPMI-8226 leukemia
RXF 393 renal = system: RXF 393 renal
SR leukemia = system: SR leukemia
HOP-92 NSCLC = system: HOP-92 NSCLC
NCI-H226 lung = system: NCI-H226 lung
OVCAR-5 ovarian = system: OVCAR-5 ovarian
A549 NSCLC = system: A549 NSCLC
OVCAR-4 ovarian = system: OVCAR-4 ovarian
OVCAR-3 ovarian = system: OVCAR-3 ovarian
NCI-H522 lung = system: NCI-H522 lung
U251 CNS = system: U251 CNS
PC-3 prostate = system: PC-3 prostate
HCC-2998 colon = system: HCC-2998 colon
MALME-3M melanoma = system: MALME-3M melanoma
EKVX NSCLC = system: EKVX NSCLC
COLO 205 colon = system: COLO 205 colon
IGROV1 ovarian = system: IGROV1 ovarian
MDA-MB-231 breast = system: MDA-MB-231 breast
SF-295 CNS = system: SF-295 CNS
OVCAR-8 ovarian = system: OVCAR-8 ovarian
T-47D breast = system: T-47D breast
MDA-MB-468 breast = system: MDA-MB-468 breast
ACHN renal = system: ACHN renal
M14 melanoma = system: M14 melanoma
NCI-H460 lung = system: NCI-H460 lung
SK-MEL-2 melanoma = system: SK-MEL-2 melanoma
NCI-H23 lung = system: NCI-H23 lung
CCRF-CEM leukemia = system: CCRF-CEM leukemia
SF-539 CNS = system: SF-539 CNS
DU-145 prostate = system: DU-145 prostate
SF-268 CNS = system: SF-268 CNS
KM12 colon = system: KM12 colon
HT29 colon = system: HT29 colon
SK-OV-3 ovarian = system: SK-OV-3 ovarian
HOP-62 NSCLC = system: HOP-62 NSCLC
A498 renal = system: A498 renal
SNB-19 CNS = system: SNB-19 CNS
CAKI-1 renal = system: CAKI-1 renal
HCT-15 colon = system: HCT-15 colon

COc1cc(/C=C/C(=O)c2cnn(-c3cc(=O)[nH]c4ccc(Cl)cc34)c2C)cc(OC)c1OC
GI50 (UACC-62 melanoma): 3.36 µM | TGI (UACC-62 melanoma): 15 µM | GI50 (K-562 leukemia): 2.68 µM | TGI (K-562 leukemia): > 100 µM | GI50 (MCF7 breast): 2.48 µM | TGI (MCF7 breast): 10.2 µM | GI50 (786-0 renal): 4.09 µM | TGI (786-0 renal): 21.1 µM | GI50 (BT-549 breast): 2.76 µM | TGI (BT-549 breast): 9.98 µM | GI50 (HS 578T breast): 3.31 µM | TGI (HS 578T breast): > 100 µM | GI50 (TK-10 renal): 3.26 µM | TGI (TK-10 renal): > 100 µM | GI50 (HCT-116 colon): 3.58 µM | TGI (HCT-116 colon): 17.5 µM | GI50 (SK-MEL-5 melanoma): 3.22 µM | TGI (SK-MEL-5 melanoma): 12 µM | GI50 (UACC-257 melanoma): 7.19 µM | TGI (UACC-257 melanoma): 64.4 µM | GI50 (UO-31 renal): 3.26 µM | TGI (UO-31 renal): 14.5 µM | GI50 (SW-620 colon): 2.97 µM | TGI (SW-620 colon): 11.5 µM | GI50 (MDA-MB-435): 2.6 µM | TGI (MDA-MB-435): 8.12 µM | GI50 (SK-MEL-28 melanoma): 3.36 µM | TGI (SK-MEL-28 melanoma): 13.3 µM | GI50 (SN12C renal): 2.64 µM | TGI (SN12C renal): 9.24 µM | GI50 (RPMI-8226 leukemia): 2.42 µM | TGI (RPMI-8226 leukemia): > 100 µM | GI50 (RXF 393 renal): 2.08 µM | TGI (RXF 393 renal): 4.95 µM | GI50 (SR leukemia): 2.02 µM | TGI (SR leukemia): > 100 µM | GI50 (HOP-92 NSCLC): 7.31 µM | TGI (HOP-92 NSCLC): 99.8 µM | GI50 (NCI-H226 lung): 2.89 µM | TGI (NCI-H226 lung): 9.13 µM | GI50 (OVCAR-5 ovarian): 3.32 µM | TGI (OVCAR-5 ovarian): 13.4 µM | GI50 (A549 NSCLC): 3.09 µM | TGI (A549 NSCLC): > 100 µM | GI50 (OVCAR-4 ovarian): 3.58 µM | TGI (OVCAR-4 ovarian): > 100 µM | GI50 (OVCAR-3 ovarian): 3.06 µM | TGI (OVCAR-3 ovarian): 9.9 µM | GI50 (NCI-H522 lung): 2.66 µM | TGI (NCI-H522 lung): 8.38 µM | GI50 (U251 CNS): 2.83 µM | TGI (U251 CNS): > 100 µM | GI50 (PC-3 prostate): 6.28 µM | TGI (PC-3 prostate): > 100 µM | GI50 (HCC-2998 colon): 2.78 µM | TGI (HCC-2998 colon): 8.21 µM | GI50 (MALME-3M melanoma): 5.1 µM | TGI (MALME-3M melanoma): 27.2 µM | GI50 (EKVX NSCLC): 2.96 µM | TGI (EKVX NSCLC): 14.1 µM | GI50 (COLO 205 colon): 3.53 µM | TGI (COLO 205 colon): 14 µM | GI50 (IGROV1 ovarian): 2.54 µM | TGI (IGROV1 ovarian): 7.18 µM | GI50 (MDA-MB-231 breast): 3.3 µM | TGI (MDA-MB-231 breast): 14.9 µM | GI50 (SF-295 CNS): 3.16 µM | TGI (SF-295 CNS): 11.5 µM | GI50 (OVCAR-8 ovarian): 2.06 µM | TGI (OVCAR-8 ovarian): 4.95 µM | GI50 (T-47D breast): 3.08 µM | TGI (T-47D breast): > 100 µM | GI50 (MDA-MB-468 breast): 1.8 µM | TGI (MDA-MB-468 breast): 4.41 µM | GI50 (ACHN renal): 1.76 µM | TGI (ACHN renal): 3.68 µM | GI50 (M14 melanoma): 3.2 µM | TGI (M14 melanoma): 19.8 µM | GI50 (NCI-H460 lung): 1.88 µM | TGI (NCI-H460 lung): 4.32 µM | GI50 (SK-MEL-2 melanoma): 2.98 µM | TGI (SK-MEL-2 melanoma): 11.8 µM | GI50 (NCI-H23 lung): 2.21 µM | TGI (NCI-H23 lung): 5.9 µM | GI50 (CCRF-CEM leukemia): 2.42 µM | TGI (CCRF-CEM leukemia): > 100 µM | GI50 (SF-539 CNS): 2.08 µM | TGI (SF-539 CNS): 4.62 µM | GI50 (DU-145 prostate): 3.3 µM | TGI (DU-145 prostate): > 100 µM | GI50 (SF-268 CNS): 3.42 µM | TGI (SF-268 CNS): > 100 µM | GI50 (KM12 colon): 3.37 µM | TGI (KM12 colon): 15 µM | GI50 (HT29 colon): 2.5 µM | TGI (HT29 colon): 6.58 µM | GI50 (SK-OV-3 ovarian): 4.68 µM | TGI (SK-OV-3 ovarian): > 100 µM | GI50 (HOP-62 NSCLC): 3.57 µM | TGI (HOP-62 NSCLC): 25.8 µM | GI50 (A498 renal): 34.2 µM | TGI (A498 renal): 87.4 µM | GI50 (SNB-19 CNS): 3.36 µM | TGI (SNB-19 CNS): 14.4 µM | GI50 (CAKI-1 renal): 4.17 µM | TGI (CAKI-1 renal): 22.5 µM | GI50 (HCT-15 colon): 1.93 µM | TGI (HCT-15 colon): 5.01 µM
